# Assay results taken from patent US20170112897A1, “METHODS FOR TREATING BRAIN INSULIN RESISTANCE” (priority 2015, published 2017).
# System: SOCS3 associated with the insulin receptor (SOCS3/IRβ)
# Assay: Ex vivo Western blotting of SOCS3 to IR beta chain ratio in hippocampal formation
# Type: cell-based, human
# Settings: MCI cases
# Excerpt: The data shown are ratios of SOCS3 to IR beta chain (IRβ) in ex vivo Western blotting tests on the hippocampal formation of age- and sex-matched normal (N), non-amnestic mild cognitive impairment (naMCI), amnestic mild cognitive impairment (aMCI), and AD dementia (ADd) cases (n=10 in each group). The basal SOCS3/IRβ levels were highly elevated in naMCI, aMCI, and ADd cases compared to the normal cases. […] Asterisks indicate statistical significance levels for differences within diagnostic groups (*=p<0.05 and *** p=<0.0001).
substance,measurement,value
D-Ala^2 GIP,basal SOCS3/IRβ ratio,highly effective in reducing this ratio
